Data on 30 compounds can be found in PubChem BioAssay (NCI).

Among the test systems are MCF7 breast; SNB-78 CNS; XF 498 CNS; HOP-18 NSCLC; DMS 114 small cell lung; M19-MEL melanoma; MDA-N; RXF-631 renal.
Assay in all cases: NCI-60 cell line screen, 48 h

Values joined by “and” are separate entries in the source; they are usually repeats but may differ in a detail not shown here. Equal entries are not always repeated.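 Grown in 96-well plates, cells were treated for 48 hours with each compound at five concentrations. Insufficient inhibition: endpoint recorded as highest concentration tested. At the GI50, growth is halved. At the TGI there is no net growth.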 Where a SMILES comes first, the peptide text is derived from it. The star is where a group is joined. Trt = c1ccc(C(c2ccccc2)(c2ccccc2)*)cc1; Cbz = O=C(OCc1ccccc1)* Where only a bound is given, the exact number is not on record here.

In the case of `Cc1cc2nc(-c3c(F)cccc3Cl)n(Cc3c(F)cccc3Cl)c2cc1C`, in the experiment on MCF7 breast, the GI50 was 12.8 µM and the TGI was above 100 µM.
On to `O=S1(=O)c2ccccc2N=C(c2ccccc2Cl)CC1c1ccc(F)cc1` (stereo not drawn), for which the TGI came to 40.3 µM in the experiment with SNB-78 CNS; 29 µM with XF 498 CNS; 29.3 µM in the experiment with HOP-18 NSCLC; 41.1 µM with DMS 114 small cell lung; 31.5 µM in the experiment on M19-MEL melanoma.
`NC(=O)c1ccc(N(C(N)=O)c2c(F)cccc2F)nc1-c1ccc(F)cc1F`: in the experiment with MCF7 breast, the GI50 is above 100 µM and the TGI was above 100 µM.
Regarding `Cc1c(Cl)c(C)c(Cc2c(C)c(Cl)c(C)c(Cl)c2O)c(O)c1Cl`, in the experiment on MCF7 breast, the GI50 is 2.14 µM and the TGI came to 8.37 µM.
As for `COc1cc(-c2cc(=O)c3c(O)c(OC)c(OC)c(OC)c3o2)cc(OC)c1OC`, the TGI with MDA-N and in the experiment on MCF7 breast was above 100 µM each time.
In the case of `CCCCCCCCCCCCCCCCOCC(O)CO` (stereo not drawn), the TGI in the experiment on MDA-N worked out at 60.6 µM; in the experiment with MCF7 breast, 38.1 µM.
Regarding `COC(=O)C(CSC(c1ccccc1)(c1ccccc1)c1ccccc1)NC(=O)C(CC(N)=O)NC(=O)OCc1ccccc1` (stereo not drawn) (Cbz-Asn-Cys(Trt)-OMe; configuration not given here), in the experiment with MCF7 breast, the GI50 was 4.54 µM and the TGI stood at 27.4 µM.
`C#CCOCn1cnc2ncnc(N)c21`: the TGI with SNB-78 CNS, with XF 498 CNS, in the experiment on HOP-18 NSCLC, in the experiment with DMS 114 small cell lung and in the experiment with M19-MEL melanoma was above 100 µM in each case.
`Cc1c(Cl)cccc1NC(=O)c1sc2nc3c(cc2c1N)CCCC3`: in the experiment on MCF7 breast, the GI50 is 0.274 µM and the TGI is above 100 µM.
The corresponding values for `COc1cc2c(cc1OCCCOc1ccc(-c3nc4ccc(N5CCN(C)CC5)cc4[nH]3)cc1)N=C[C@@H]1CCCN1C2=O` are below 0.01 µM and 5.12 µM.
The corresponding values for `Cc1ccc(-c2n[nH]c(=O)c3noc(-c4ccc(C)cc4)c23)cc1` are 0.565 µM and above 100 µM.
As for `CN(C)CN(C)c1nc(N(C)C)nc(N(C)CN(C)C)n1`, the TGI with XF 498 CNS, in the experiment with HOP-18 NSCLC and in the experiment on M19-MEL melanoma was above 100 µM in each case.
`Nc1nc(N)c2c(n1)NC(c1sc(Cl)nc1Cl)CC(c1ccc3c(c1)OCO3)=N2` (stereo not drawn): in the experiment on MCF7 breast, the GI50 is 2.81 µM and the TGI was determined as 47.2 µM.
As for `COc1cc(C(C#N)NNc2nc(C)cc(=O)[nH]2)cc(OC)c1OC` (stereo not drawn), the TGI in the experiment on SNB-78 CNS, in the experiment with HOP-18 NSCLC and in the experiment with M19-MEL melanoma was above 100 µM in each case.
As to `Cn1cc(-c2nc(N[C@@H]3CCCC[C@@H]3N)c(F)c3c2C(=O)NC3)cn1`, in the experiment on MCF7 breast, the GI50 was 5.81 µM and 6.21 µM; the TGI was above 100 µM.
Take `O=C(Cc1ccccc1)NN1C(=O)/C(=C\c2ccccc2O)SC1=Nc1ccccc1`: the TGI with MDA-N and with MCF7 breast was above 100 µM throughout.
Consider `O=C(/C=C/C1C(=O)NC(=O)NC1=O)CC(=O)C(=O)Nc1cc(Cl)c(Cl)cc1Cl`, for which the TGI with SNB-78 CNS, in the experiment on XF 498 CNS, in the experiment on HOP-18 NSCLC, in the experiment on DMS 114 small cell lung and with M19-MEL melanoma was above 100 µM throughout.
`Cc1cc2nc3c4ccc(Br)cc4n(CCN(C)C)c3nc2cc1C`: in the experiment with MCF7 breast, the GI50 is 1.17 µM and the TGI was found to be 3.06 µM.
In the case of `c1ccc(-c2ccnc3c2ccc2c(-c4ccccc4)ccnc23)cc1`, the TGI in the experiment on SNB-78 CNS came to 18 µM; in the experiment on RXF-631 renal, 6.19 µM; in the experiment on HOP-18 NSCLC, 11.4 µM; with DMS 114 small cell lung, 12.7 µM; in the experiment on M19-MEL melanoma, 5.14 µM.
Consider `C/C(=N\NS(=O)(=O)c1ccc([N+](=O)[O-])cc1)c1ccc[n+]([O-])n1`, for which the TGI in the experiment with SNB-78 CNS came to 51.8 µM; in the experiment on XF 498 CNS it was 7.69 µM; in the experiment with HOP-18 NSCLC it was 68.2 µM; in the experiment with DMS 114 small cell lung, 4.75 µM; with M19-MEL melanoma it was 5.05 µM.
Compound `CCOC(=O)CC(NC(=O)c1ccc(N=NN(C)C)cc1)C(=O)OCC` (stereo not drawn) came in with a TGI in the experiment with M19-MEL melanoma above 100 µM.
As for `COc1ccc(-c2nc(C(=O)c3ccccc3)n(CC(=O)c3ccc(Cl)cc3)c2-c2ccc(OC)cc2)cc1`, in the experiment on MCF7 breast, the GI50 is above 100 µM and the TGI was above 100 µM.
For the compound `Oc1ccc(Cl)cc1/C=N\NC(=S)N/N=C/c1cc(Cl)ccc1O`, in the experiment on MCF7 breast, the GI50 is 3.82 µM and the TGI was above 100 µM.
For `O=c1c2ccccc2nc(-c2ccccc2)n1NC(=S)Nc1cccc(Cl)c1`, the TGI with HOP-18 NSCLC, in the experiment on DMS 114 small cell lung and in the experiment on M19-MEL melanoma was above 100 µM each time.
On to `CNC(c1ccncc1)C(NC)c1ccncc1` (stereo not drawn), for which the TGI in the experiment on MDA-N and in the experiment with MCF7 breast was above 100 µM in each case.
Take `COc1cc(/C=N/NC(=O)c2ccccc2Nc2cccc(C(F)(F)F)c2)cc(OC)c1OC`: in the experiment with MCF7 breast, the GI50 was 1.57 µM and the TGI is 6.86 µM.
On to `CCCOC(=O)C1C2CCC(O2)C1C(=O)O` (stereo not drawn), for which the TGI with MDA-N and with MCF7 breast was above 100 µM throughout.
Take `CN1CCN(c2ccc3nc(-c4ccc(OCCCCN5CCN(CCCCN6C(=O)c7cccc8cccc(c78)C6=O)CC5)cc4)[nH]c3c2)CC1`: in the experiment with MCF7 breast, the GI50 is 74.7 µM and the TGI was above 100 µM.
As for `COc1ccc(C)cc1C1CCC(=O)O1` (stereo not drawn), the TGI with SNB-78 CNS was above 100 µM; with XF 498 CNS, 99.2 µM; in the experiment on HOP-18 NSCLC, above 100 µM; in the experiment on DMS 114 small cell lung, above 100 µM; in the experiment on M19-MEL melanoma it was above 100 µM.
On to `O=C1CCC(=O)c2sccc2N1`, for which the TGI in the experiment with SNB-78 CNS, with XF 498 CNS, in the experiment on HOP-18 NSCLC, in the experiment on DMS 114 small cell lung and in the experiment with M19-MEL melanoma was above 100 µM throughout.
